Test results reported in ChEMBL document CHEMBL1157539, “Thousands of chemical starting points for antimalarial lead identification” (Nature, 2010).

Test system: Plasmodium falciparum
Assay: GSK_TCMDC: Inhibition of Plasmodium falciparum 3D7 in whole erythrocytes, using parasite LDH activity as an index of growth.
Format: functional, organism-based
Details: Plasmodium falciparum, 3D7

Compound	XC50 [nM]
CC[C@H]1CN2CC[C@H]1C[C@H]2[C@H](O)c1cc(-c2ccc(C)cc2)nc2ccc(OC)cc12	109
Oc1ccc(Nc2nc(NCC3CCCO3)c3ccccc3n2)cc1 (stereo not given)	806
O=c1ccc2ccc(F)c3c2n1CC3CN1CCC(NCc2ccc(-c3cccc(Cl)c3)nc2)CC1 (stereo not given)	992
CN(C)CCCOc1cc(NC(=O)Nc2ccc(-c3ccncc3)c3ccccc23)ccc1I	699
O=C(CSc1ccccn1)Nc1c(F)cccc1F	1210
C[C@H](NC(=O)c1c(OC2CN(C(c3ccccc3)c3ccccc3)C2)c(-c2ccccc2)nc2ccccc12)C1CCCCC1	978
CCCc1cc(OC)c(CC2c3cccc(O)c3CCN2C)cc1OC (stereo not given)	305
CC(C)c1cccc(OCC2CCN(c3ccc(C(=O)Nc4ccccc4)cn3)CC2)c1	701
COc1ccc2c(c1)OC(C)(C)CC2=NOS(=O)(=O)c1ccc(C)cc1	208
CCCCCCCc1c(C)nc2c(OC)cccc2c1O	921
CC[C@H](C)CNC(=O)c1cncc(-c2ccc(CNCCCc3ccccc3)cc2)c1	735
CC1CCc2c(C(=O)Nc3c(F)cc(F)cc3Br)csc2C1 (stereo not given)	752
Cc1ccccc1OCC(O)CN1CCC(C2CCN(CC(O)COc3ccccc3C)CC2)CC1 (stereo not given)	307
CC(Cc1ccc(OCCCCOc2ccccc2)cc1)NCCc1ccc(Oc2ccccc2)cc1 (stereo not given)	812
COc1ccc(NC(=O)[C@H](CC(C)C)Nc2cc(C)nc(NCc3ccccc3C)n2)cc1	888
C(=NNc1nc2ccccc2[nH]1)c1ccccc1OCc1ccccc1	256
O=C(NCc1cccc(F)c1)Nc1cccc(-c2cccc(-c3nc4cc(C(F)(F)F)ccc4[nH]3)c2)c1	330
COc1ccc2nccc(NCC3(O)CCC(NCc4cc5c(cn4)OCCO5)CC3)c2n1 (stereo not given)	664
Fc1ccc2[nH]c(-c3cccc(-c4ccc(CNCC5CCCO5)cc4)c3)nc2c1 (stereo not given)	541
COc1cccc(NC(=O)c2nc(N3CCN(c4ccncc4)CC3)ccc2Cl)c1	924
OCCNc1nc(Nc2cccc(O)c2)nc2ccccc12	389
Cc1cccc2nc(-c3cccc(-c4cccc(NC(=O)NCc5cccc(F)c5)c4)c3)[nH]c12	453
O=C(CCN1CCCCC1)Nc1ccc(Nc2nccc(NCC(O)c3ccccc3)n2)cc1 (stereo not given)	721
N=C1C=C(N)C(=O)c2ccccc21	1050
CC(C)c1ccc(CN2CCCCC(NC(=O)c3cc(-c4ccccc4F)cs3)C2)cc1 (stereo not given)	672

Compound	XC50 [nM]
Cc1cccn2c(=O)c3cc(C(=O)NC4CCCCC4)c(=N)n(CCCn4ccnc4)c3nc12	753
CO/C(=C\C=C\c1cc2cc(Cl)c(Cl)cc2[nH]1)C(=O)NCCCN1CCC(c2ccccc2)CC1	906
Oc1ccc2[nH]c(-c3cccs3)nc2c1CN1CCC(O)(c2ccccc2)CC1	782
COC(=O)c1ccc(OCC(O)CO)cc1O (stereo not given)	738
C(=N\Nc1nccc2sc(-c3cccnc3)cc12)/c1cccnc1	423
Oc1ccccc1CN1CCN(C(c2ccccc2)c2ccccc2)CC1	761
Nc1cc(-c2ccc(Br)cc2O)nc2ccccc12	619
CCCN(CCC)C(=S)N/N=C1/C(=O)Nc2ccccc21	815
c1cc(CN2CCCCC2)cc(-c2ccc(-c3nc4ccccc4[nH]3)s2)c1	869
Nc1nc(F)nc2nc[nH]c12	432
COc1ccccc1-c1ccc(CNC(=O)C(CN2CCN(C)CC2)c2ccccc2)cc1 (stereo not given)	1260
CC12CCC(CN(CC(O)Cn3c4ccccc4c4cc(I)ccc43)C1)C2(C)C (stereo not given)	1160
Fc1ccc2[nH]c(-c3ccc(-c4ccc(CNCCc5ccncc5)cc4)s3)nc2c1	142
CC(C)(C)c1ccc(CN2CCCCC(NC(=O)c3cc(-c4cccc(Cl)c4)cs3)C2)cc1 (stereo not given)	999
O=C(Cc1ccccc1)NC(CCN1CCC(N(C2CC2)S(=O)(=O)c2cccc(C(F)(F)F)c2)CC1)c1ccc(Cl)c(Cl)c1 (stereo not given)	1270
Cn1nc(C(F)(F)F)cc1-c1ccc(C(=O)NC2CCC(CN3CCC(c4c[nH]c5ccccc45)CC3)CC2)s1 (stereo not given)	565
CCOc1ccc2nc(C)cc(N/N=C/c3ccccc3[N+](=O)[O-])c2c1	29.6
Cc1cccc(Cl)c1Nc1nnc(-c2cccc(C(=O)NC[C@@H]3CC[C@H]4C[C@@H]3C4(C)C)c2)o1	273
O=C(/C=C/c1ccc(Cl)c(Cl)c1)NCCCCCN1CCC(NC(=O)Nc2cc(Cl)cc(Cl)c2)CC1	722
Clc1cccc(-c2nc(Nc3ccnc(-c4ccc(CN5CCOCC5)cc4)c3)c3ccccc3n2)c1	710
COc1ccc(C2CC(=O)C3=C(C2)NC(C)=C(C(=O)OC2CCCC2)C3c2cccc(O)c2)cc1OC (stereo not given)	216
O=C(Nc1ccccc1-c1nc2ccccc2s1)C(Cl)(Cl)Cl	638
O=C(/C=C/c1c(Cl)cccc1Cl)NC1CCC(CN2CCC(Cc3cc4ccccc4[nH]3)CC2)CC1 (stereo not given)	975
Cc1nn(-c2ccc(Cl)cc2)c2[nH]c(CN3CCN(c4cccc(Cl)c4)CC3)cc(=O)c12	240
Cc1cccc2nc(-c3cccc(-c4cccc(CNCCc5cccn5C)c4)c3)[nH]c12	733

Compound	XC50 [nM]
C/C=C1/CN2CC[C@H]1C[C@H]2[C@H](O)c1ccnc2ccc(O)cc12	491
CC(Cc1ccc(C(=O)OCCOC(=O)c2ccc(CC(C)NCC(O)c3cccc(C(F)(F)F)c3)cc2)cc1)NCC(O)c1cccc(C(F)(F)F)c1 (stereo not given)	820
O=C(Nc1ccc(-c2nc3cc4ccccc4cc3[nH]2)cc1)c1cccc(Br)c1	363
O=C(NC1CCN(Cc2ccccc2O)C1)c1ccc(Cl)c(Cl)c1 (stereo not given)	894
CN1CCC(Oc2ccc(CN3CC[C@H](NC(=O)c4ccc(Cl)c(Cl)c4)C3)cc2Cl)C1 (stereo not given in full)	882
Cc1cc(Cl)c(S(=O)(=O)N(C)c2ccccc2)cc1OCC(=O)NC1CCCCC1	296
O=C(/C=C/c1cccs1)NCC(NCCCNc1cc(=O)c2ccccc2[nH]1)c1cc(Br)cc(Br)c1 (stereo not given)	888
O=C(/C=C/c1ccc(Cl)c(Cl)c1)NCCC1CCC(N2CCC(c3c[nH]c4ccccc34)CC2)CC1 (stereo not given)	197
Cc1ccc(Nc2nc(N/N=C/c3cccc(O)c3)nc(Nc3ccc([N+](=O)[O-])cc3)n2)cc1C	735
CC(C)C(=O)ONC1=NC(=N)N(OCCCOc2cc(Cl)c(Cl)cc2Cl)C(C)(C)N1	3.2
COC(=O)/C=C/c1ccc(CC(C)NCC(O)c2cccc(Cl)c2)cc1 (stereo not given)	751
O=C(Nc1cccc(C(F)(F)F)c1)c1cccc(S(=O)(=O)NC2CCCN(CC3CCCCC3)C2)c1 (stereo not given)	857
COc1ccc(CNCCCCCCCNCc2ccc(Cl)c(Cl)c2)cc1Cl	1220
O=C(Nc1ccccc1)N1CCC(CN2CCOC(c3ccccc3)(c3ccccc3)C2)CC1	206
Cc1cc(=NN=Cc2ccccn2)c2cc(F)ccc2[nH]1	761
COC(=O)c1ccc(-c2ccc(C(=O)NCC3CCN(c4nc(N)c5cc(OC)c(OC)cc5n4)CC3)cc2)cc1	185
CC(C)CNCc1cccc(-c2ccc(CNc3ccc4ncccc4c3)cc2)c1	1060
CC(C)N1CCC(Oc2ccc(CN3CCN(C(c4ccccc4)c4ccc(Cl)cc4)CC3)cc2)CC1 (stereo not given)	937
COCCCNC(=O)c1ccc(O)c(-c2cc(Cl)cc(Cl)c2)c1	923
Cc1cc(C2CCN(CCCCNC(=O)c3ccc(NC(=O)c4ccc(Cl)cc4)cc3)CC2)c(C)cc1OCc1cccnc1	603
Cc1ccc(Cc2cccc3nc(N)nc(N)c23)cc1	1150
N=C(N)NN=Cc1cc([N+](=O)[O-])ccc1Sc1ccccc1CO	1460
COc1ccc2nccc([C@@H](O)CN3CCC(NC(=O)C(c4cc5ccccc5o4)N4CCN(c5ccccc5OC)CC4)CC3)c2c1 (stereo not given in full)	308
Cc1cc(I)ccc1Nc1nc2nonc2nc1Nc1ccc(I)cc1C	510
N=C(N)NN=Cc1c2ccccc2c(Cl)c2c(Cl)cccc12	878

Compound	XC50 [nM]
COc1ccc2ncc(F)c([C@@H](O)CN3CCC(NCc4cc5c(cn4)OCCO5)CC3)c2c1	140
O=C(NCCCCCCNCc1ccc(-c2ccccc2)cc1)Nc1ccc(Cl)c(Cl)c1	962
N#Cc1ccc(CN2CCCN(c3ccc(NC(=O)c4ccc(F)cc4)cc3)CC2)cc1	1280
CC(C)c1cccc(C(C)C)c1NC(=O)NNC(=O)c1ccc(CCN2CCC(c3nc(COCC(F)(F)F)c(-c4ccc(F)cc4)o3)CC2)cc1	1090
CC(Cc1ccc(OCCOc2ccccc2)cc1)NCC(O)c1cccc(C(F)(F)F)c1 (stereo not given)	968
O=C(Nc1ccc(N2CCCCC2)c(Cl)c1)c1ccc(Br)o1	549
Cc1cc(F)ccc1Nc1nc(N(C)c2ccccc2)c2cc(OCCCN(C)C)ccc2n1	717
COc1ccc(Br)cc1/C=C/C(=O)Nc1cccc(C2CCN(C)CC2)c1	523
O=c1nc2[nH]c3ccccc3n2c(=O)[nH]1	174
CCNc1cc(C(=O)N[C@@H](Cc2ccccc2)[C@H](O)CNC2(C(C)C)CCC2)cc(N2CCCCS2(=O)=O)c1	685
CC(C)(C)OC(=O)Cn1cnc2cc(NC(=O)c3cc([N+](=O)[O-])cc([N+](=O)[O-])c3)ccc21	312
O=C(/C=C/c1ccc(C(F)(F)F)cc1)NCCCCCN1CCN(C(=O)Nc2ccc(Cl)c(Cl)c2)CC1	867
CCCCCCCCc1c(C)nc(C)c(Br)c1O	824
COc1c(C(=O)NC2CCN(Cc3ccccc3)C2)cnc2ccccc12 (stereo not given)	956
COc1nc(-n2ccc(=N)cc2)nc2ccccc12	1060
COc1cc2nccc(Nc3cc(C)cc(O)c3)c2cc1OC	905
Brc1ccc(C=NNc2nc3ccccc3[nH]2)cc1	700
OCC1CCN(Cc2ccc(-c3cccc(-c4nc5ccccc5[nH]4)c3)cc2)CC1	813
COc1ccc(NC(=O)Nc2cccc(-c3ccncc3)c2)cc1N1CCN(C)CC1	552
CCOc1cc(C)ccc1C1CCN(CCCCNC(=O)c2ccc(-c3ccc(C(F)(F)F)cn3)cc2)CC1	787
FC(F)(F)c1cnc(Sc2nnc(-c3ccco3)o2)c(Cl)c1	791
CCOc1ccc(-c2nonc2NC(=O)c2ccccc2Cl)cc1OCC	742
CCN(CC)CCN(Cc1ccc(-c2ccc(C(F)(F)F)cc2)nc1)C(=O)Cn1cc(Cc2cnn(C)c2)c(=O)n2nc(-c3ccccc3)cc12	991
CN1CCN(CCCN(Cc2ccc(-c3cccc(CNCc4ccc5c(c4)OCO5)c3)cc2)C(=O)NC2CCCCC2)CC1	988
COc1ccc2ccccc2c1C=NN=c1cc(C)[nH]c2c(C)cccc12	818
